The text below walks through data of patent US8206983B2, “In vitro methods for the induction and maintenance of plant cell lines as single suspension cells with intact cell walls” (Dow AgroSciences, LLC., priority 2006, dated 2012).

The experiment deals with Xanthi tobacco suspension. As to the kind of experiment: Single cell induction by colchicine in Xanthi suspension. The class given is cell-based. An excerpt: BY2 suspension-cultured cells were obtained from Japan tobacco and maintained in LSBY2 medium in a 7 day cycle. Jimsonweed suspension and Pettite Havana tobacco suspensions were initiated from callus initiated at DAS and Xanthi suspensions were procured as a sample from Professor Jack Widholm from UIUC, IL. JT-NT1 suspension cells, obtained from Washington University that are maintained in NT1B medium in 7 day cycle were used only for the pectin degradation enzyme study to separate the cells into single cells. The cells were cultured in shake flasks at 25-28° C. in dark on orbital shakers at 150 rpm. […] The NT-1 cell line is widely used and readily available; though, any tobacco suspension cell line is consistent with the practice of the invention. […]
Cell expansion and separation were observed by light microscopy (with Nomarski and dark field optics). Spherical cells and single cells were counted by using a hemacytometer to determine the degree of cell expansion and separation, respectively. Cell numbers in aggregates were determined by treating with 5% (wt/vol) chromium trioxide for 16 hr and counting cells (Henshaw et. al, 1966). Cell viability was determined by staining cells (Yokoyama et. al, 1997) with fluorescein diacetate (FDA) and propidium iodide (PI) using a fluorescent microscope (Zeiss Photomicroscope). […]

With `COc1cc2c(c(OC)c1OC)-c1ccc(OC)c(=O)cc1[C@@H](NC(C)=O)CC2` [Colchicine], the single cell release result is reported as “partial release of single cells” (0.5 mM, 7 d) and “Separated single cells” (1 mM).
